Results from patent US12605451B2, “Targeted plasma protein degradation” (Novartis AG, priority 2020, dated 2026).
Like-named read-outs stand apart in the source and are kept apart here. Positions of bridges follow the written chain, without caps; N, C: chain ends. Non-standard residues stand in square brackets, D forms with d. Residues, ends and D or L forms follow the SMILES beside them. *: point of attachment. X6 = O=C(CCCO[C@@H]1OC(CO[C@H]2OC(CO[C@H]3OC(CO)[C@@H](O)C(O)C3C[C@H]3OC(COP(=O)(O)O)[C@@H](O)C(O)C3O)[C@@H](O)C(O)C2O)[C@@H](O)C(O[C@H]2OC(CO)[C@@H](O)C(O)C2O[C@H]2OC(COP(=O)(O)O)[C@@H](O)C(O)C2O)C1O)NNC(=O)CO/N=C/c1ccc(C(=O)*)cc1; X7 = O=C(OC[C@@H]1[C@@H]2CCc3c(nnn3CCCCCCO[C@H](O[C@@H](/C=N/OCCO[C@H]3O[C@H](CCP(=O)(O)O)[C@@H](O)[C@H](O)[C@@H]3O)CO)[C@H](O)/C=N\OCCO[C@H]3O[C@H](CCP(=O)(O)O)[C@@H](O)[C@H](O)[C@@H]3O)CC[C@@H]21)*; X2 = CC(=O)N[C@H]1[C@H]2OC[C@](COCCOCCOCCOCCn3cc(COCC(COCc4cn(CCOCCOCCOCCOC[C@@]56CO[C@@H](O5)[C@H](NC(C)=O)[C@@H](O)[C@H]6O)nn4)NC(=O)CCOCCOCCOCCOCCC(=O)*)nn3)(O2)[C@H](O)[C@@H]1O; X1 = CC(=O)N[C@H]1[C@H]2OC[C@](COCCOCCOCCOCCn3cc(COCCNC(=O)CCOCCOCCOCCOCCC(=O)*)nn3)(O2)[C@H](O)[C@@H]1O; Bip = N[C@@H](Cc1ccc(-c2ccccc2)cc1)C(=O)O; NMeA = CN[C@@H](C)C(=O)O

Columns and labels:
[1] = target: T1, FHR3 (Homo sapiens, UniProt Q02985); test: SPR binding to biotinylated FHR3 (Proteon XPR36); conditions: Bifunctional Compound
T1 construct: Purified FHR3 with C-terminal biotinylated Avitag was used for the assay
T1 sequence (Q02985 19-330): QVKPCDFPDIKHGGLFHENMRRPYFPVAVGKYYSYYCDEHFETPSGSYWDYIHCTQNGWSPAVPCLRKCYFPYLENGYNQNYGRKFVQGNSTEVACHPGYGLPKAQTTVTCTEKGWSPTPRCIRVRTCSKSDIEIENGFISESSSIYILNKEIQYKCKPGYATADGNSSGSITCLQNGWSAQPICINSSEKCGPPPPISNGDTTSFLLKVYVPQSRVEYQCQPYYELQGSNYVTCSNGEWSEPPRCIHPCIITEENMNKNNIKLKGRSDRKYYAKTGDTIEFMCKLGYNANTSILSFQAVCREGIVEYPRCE
Description: SPR was used to obtain the binding data for FHR3 receptor ligands compounds (C12), (C13), (C14), (C15) and (C16), either alone or as part of the bifunctional compounds (BFC13), (BFC14), (BFC15), (BFC16) and (BFC17), respectively.
SPR Binding experiments were performed on a Proteon XPR36 instrument (Bio-Rad Laboratories). Purified FHR3 with C-terminal biotinylated Avitag was used for the assay. Biotinylated FHR3 was incubated with fivefold molar excess of bifunctional compounds (BFC13), (BFC14), (BFC15), (BFC16) or (BFC17), or compounds (C12), (C13), (C14), (C15) or (C16), and immobilized onto a Neutravidin coated sensor chip. (NLC chip, Bio-Rad Laboratories, Inc). […]
To perform sandwich SPR binding assays, His-ASGPR1 (62-291) protein stocks were diluted with running buffer to a desired concentration. […] Sensorgrams were recorded for association and dissociation phases. All sensorgrams were processed by subtracting the binding response recorded from a blank control surfaces (or interspot surfaces), followed by subtracting buffer blank injections from the reaction surface. […]

[2] = target: T2, human ASGPR1 (Homo sapiens, UniProt P07306); test: ASGPR1 SPR direct binding (Biacore, SA chip)
T2 construct: Recombinant extracellular domain of human ASGPR1 with N-terminal biotinylated Avitag
T2 sequence (P07306 62-291 limits assumed): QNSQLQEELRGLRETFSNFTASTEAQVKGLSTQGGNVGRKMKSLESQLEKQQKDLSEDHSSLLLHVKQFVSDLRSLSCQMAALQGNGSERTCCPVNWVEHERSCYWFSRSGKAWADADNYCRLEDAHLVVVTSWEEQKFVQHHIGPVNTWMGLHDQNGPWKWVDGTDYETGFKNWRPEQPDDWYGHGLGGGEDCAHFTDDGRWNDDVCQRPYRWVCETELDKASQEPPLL
Description: SPR was used to obtain the binding data for ASGP receptor ligand compound (int-CC2), either alone or as part of the bifunctional compounds (BFC-13), (BFC-15) and (BFC16).
(§1) ASGPR1 SPR experiments were performed on either Biacore T200 or Biacore 8K. The assay was optimized for Biacore (Streptavidin) SA chip in running buffer consisting of 20 mM HEPES, 300 mM NaCl, 2 mM CaCl2, 0.01% tween-20, 2% DMSO, pH 7.4. Recombinant extracellular domain of human ASGPR1 with N-terminal biotinylated Avitag was diluted to 20 μg/mL in running buffer, and immobilized onto SA chip after it was preconditioned with at least four 60-second injections at 30 uL/min of 1 M NaCl/40 mM NaOH solution. Protein immobilization level varied from 500 RU to 3500 RU dependent on analytes' molecular weight, for targeted Rmax of 30 RUs. Direct binding of analytes to ASGPR1 was observed when a dose response titration of analytes in 2% DMSO was flown over the immobilized protein. Data analysis was done on either Biacore T200 Evaluation Software or Biacore Insight Evaluation Software.
SPR was used to obtain the binding data for ASGP receptor ligand compounds (int-CC2), either alone or as part of the bifunctional compounds (BFC1).
as §1, with “Biacore” for “Biacore (Streptavidin)”

[3] = target: M6PR (Homo sapiens, UniProt P11717); test: SPR binding to M6P receptor
Excerpt: SPR was used to obtain the binding data for M6P receptor ligands compounds (int-CC6), either alone or as part of the bifunctional compound (BFC-2).

[4] = target: T3, human PCSK9 (Homo sapiens, UniProt Q8NBP7); test: SPR binding to biotinylated human PCSK9 (Proteon XPR36); conditions: Bifunctional Compound; SPR; read-out: PCSK9 KD
T3 construct: Purified recombinant full length human PCSK9 with C-terminal biotinylated Avitag
Description: SPR was used to obtain the binding data for PCSK9 receptor ligand compound (C5), either alone or as part of the bifunctional compounds (BFC1), respectively.
SPR Binding experiments were performed on a Proteon XPR36 instrument (Bio-Rad Laboratories). Purified recombinant full length human PCSK9 with C-terminal biotinylated Avitag was used for the assay. Biotinylated human PCSK9 was incubated with fivefold molar excess of bifunctional compound (BFC1) or compound (C5), and immobilized onto a Neutravidin coated sensor chip. (NLC chip, Bio-Rad Laboratories, Inc). After conditioning the chip by injecting running buffer (20 mM Tris pH7.5, 300 mM NaCl, 25 mM CaCl2, 2 mM betamercaptoethanol, 2% DMSO and 0.05% Tween-20) at a flow rate of 0.1 mL/min for 240 s, PCSK9 protein was injected at a protein concentration of 0.02 mg/ml in running buffer with fivefold molar excess of bifunctional compound and a flow rate of 0.03 mL/min followed by 4 washes with running buffer with 1 μM of bifunctional compound (0.1 mL/min for 60 seconds each).
To perform sandwich SPR binding assays, His-ASGPR1 (62-291) protein stocks were diluted with running buffer to a desired concentration. ASGPR was injected at a flow rate of 0.1 mL/min for 240 s and allowed to dissociate for 1200 s. Sensorgrams were recorded for association and dissociation phases. All sensorgrams were processed by subtracting the binding response recorded from a blank control surfaces (or interspot surfaces), followed by subtracting buffer blank injections from the reaction surface. Data were processed with the ProteOn Manager software (version 3.1.0.6, Bio-Rad, Inc.).

[5] = Bifunctional Compound (PCSK9 series), Table 9, read-out: ASGPR binding KD

Chain of M6PR (P11717 whole entry): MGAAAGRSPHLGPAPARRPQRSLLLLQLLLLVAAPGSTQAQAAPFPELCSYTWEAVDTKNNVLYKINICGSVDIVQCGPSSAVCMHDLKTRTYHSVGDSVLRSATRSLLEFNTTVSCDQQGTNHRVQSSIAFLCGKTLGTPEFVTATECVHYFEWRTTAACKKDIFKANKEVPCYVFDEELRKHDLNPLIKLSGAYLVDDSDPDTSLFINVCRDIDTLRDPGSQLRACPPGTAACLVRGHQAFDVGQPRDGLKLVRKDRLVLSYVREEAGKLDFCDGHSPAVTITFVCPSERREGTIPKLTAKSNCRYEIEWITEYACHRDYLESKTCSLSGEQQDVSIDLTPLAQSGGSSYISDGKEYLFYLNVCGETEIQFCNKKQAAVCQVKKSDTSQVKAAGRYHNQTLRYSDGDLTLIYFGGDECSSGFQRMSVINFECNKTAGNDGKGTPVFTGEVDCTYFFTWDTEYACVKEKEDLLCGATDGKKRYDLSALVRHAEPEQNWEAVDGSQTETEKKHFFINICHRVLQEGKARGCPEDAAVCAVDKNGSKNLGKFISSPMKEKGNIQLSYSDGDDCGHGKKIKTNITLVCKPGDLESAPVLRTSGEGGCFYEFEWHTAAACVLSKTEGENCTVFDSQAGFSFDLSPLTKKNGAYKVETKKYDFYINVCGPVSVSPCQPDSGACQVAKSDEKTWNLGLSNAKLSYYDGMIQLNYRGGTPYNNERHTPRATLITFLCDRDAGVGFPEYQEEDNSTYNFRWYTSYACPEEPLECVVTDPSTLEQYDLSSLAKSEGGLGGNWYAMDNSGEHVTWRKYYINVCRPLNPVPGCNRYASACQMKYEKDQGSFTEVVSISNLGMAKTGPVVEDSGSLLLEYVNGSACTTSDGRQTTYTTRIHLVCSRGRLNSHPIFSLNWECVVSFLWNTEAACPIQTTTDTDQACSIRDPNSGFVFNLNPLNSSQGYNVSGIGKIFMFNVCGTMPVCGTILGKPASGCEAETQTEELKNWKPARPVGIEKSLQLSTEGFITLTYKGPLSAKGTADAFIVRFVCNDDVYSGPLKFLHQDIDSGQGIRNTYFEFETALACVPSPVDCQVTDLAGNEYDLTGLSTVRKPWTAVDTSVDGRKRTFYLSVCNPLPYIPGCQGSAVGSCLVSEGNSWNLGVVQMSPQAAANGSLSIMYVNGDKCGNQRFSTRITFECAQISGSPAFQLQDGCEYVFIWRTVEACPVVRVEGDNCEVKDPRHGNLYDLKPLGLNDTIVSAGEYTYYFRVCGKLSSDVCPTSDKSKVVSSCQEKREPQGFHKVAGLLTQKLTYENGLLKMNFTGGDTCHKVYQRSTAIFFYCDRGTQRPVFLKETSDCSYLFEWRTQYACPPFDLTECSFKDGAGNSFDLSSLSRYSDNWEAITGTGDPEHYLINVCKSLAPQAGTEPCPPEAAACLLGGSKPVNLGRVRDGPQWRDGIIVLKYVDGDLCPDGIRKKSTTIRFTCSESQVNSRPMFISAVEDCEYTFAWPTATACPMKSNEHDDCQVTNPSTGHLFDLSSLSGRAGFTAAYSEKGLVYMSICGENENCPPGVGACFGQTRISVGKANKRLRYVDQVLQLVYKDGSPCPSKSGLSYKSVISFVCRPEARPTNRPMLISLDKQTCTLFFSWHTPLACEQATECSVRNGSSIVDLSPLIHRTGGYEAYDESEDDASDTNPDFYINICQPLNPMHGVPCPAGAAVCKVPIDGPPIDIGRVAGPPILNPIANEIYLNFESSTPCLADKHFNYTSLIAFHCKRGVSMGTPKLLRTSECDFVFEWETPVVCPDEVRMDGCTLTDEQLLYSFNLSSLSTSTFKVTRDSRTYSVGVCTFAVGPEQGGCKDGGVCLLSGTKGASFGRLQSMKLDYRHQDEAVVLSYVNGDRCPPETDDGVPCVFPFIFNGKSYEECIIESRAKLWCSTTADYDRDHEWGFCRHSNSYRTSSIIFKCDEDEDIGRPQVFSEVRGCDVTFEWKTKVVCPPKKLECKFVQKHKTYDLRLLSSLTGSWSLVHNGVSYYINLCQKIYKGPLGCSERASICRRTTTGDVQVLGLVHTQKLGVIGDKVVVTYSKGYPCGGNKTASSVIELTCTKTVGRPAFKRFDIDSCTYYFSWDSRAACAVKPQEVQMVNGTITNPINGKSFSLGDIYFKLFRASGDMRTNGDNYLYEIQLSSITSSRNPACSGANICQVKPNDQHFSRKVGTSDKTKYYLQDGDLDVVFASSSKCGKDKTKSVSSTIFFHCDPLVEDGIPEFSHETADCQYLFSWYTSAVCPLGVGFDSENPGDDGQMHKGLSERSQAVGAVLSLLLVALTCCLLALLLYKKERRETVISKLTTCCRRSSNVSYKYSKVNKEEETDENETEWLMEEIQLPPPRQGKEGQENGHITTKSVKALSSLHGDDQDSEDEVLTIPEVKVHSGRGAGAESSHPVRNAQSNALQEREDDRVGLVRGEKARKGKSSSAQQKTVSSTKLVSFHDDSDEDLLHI
T3 sequence (Q8NBP7 153-692): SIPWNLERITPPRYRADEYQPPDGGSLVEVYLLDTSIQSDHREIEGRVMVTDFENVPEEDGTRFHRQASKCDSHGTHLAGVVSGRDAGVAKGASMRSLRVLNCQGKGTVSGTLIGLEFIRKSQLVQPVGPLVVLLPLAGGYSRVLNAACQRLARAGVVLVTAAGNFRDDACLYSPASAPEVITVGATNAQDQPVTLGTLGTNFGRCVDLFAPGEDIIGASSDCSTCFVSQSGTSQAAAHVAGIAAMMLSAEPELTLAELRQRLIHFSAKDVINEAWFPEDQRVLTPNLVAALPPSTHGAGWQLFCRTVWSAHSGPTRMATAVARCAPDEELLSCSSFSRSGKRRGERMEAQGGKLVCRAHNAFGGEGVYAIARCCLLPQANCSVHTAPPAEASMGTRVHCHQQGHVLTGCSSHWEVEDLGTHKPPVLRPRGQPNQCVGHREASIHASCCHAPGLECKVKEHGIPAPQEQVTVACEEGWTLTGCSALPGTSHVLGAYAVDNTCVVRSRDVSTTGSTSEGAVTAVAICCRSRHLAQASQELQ

Kd [4]	Kd [2, 5]	SMILES	Kd [3]	also measured
		CC(=O)N[C@H]1[C@H](OCCCCC(=O)NCCCNC(=O)CCOCC(COCCC(=O)NCCCNC(=O)CCCCO[C@@H]2O[C@H](CO)[C@H](O)[C@H](O)[C@H]2NC(C)=O)(COCCC(=O)NCCCNC(=O)CCCCO[C@@H]2O[C@H](CO)[C@H](O)[C@H](O)[C@H]2NC(C)=O)NC(=O)CCOCCOCCOCCOCCOCCOCCOCCOCCOCCC(=O)NCCCC[C@@H]2NC(=O)[C@H](Cc3ccc(O)cc3)NC(=O)[C@H](CC(N)=O)NC(=O)[C@H](C(C)C)NC(=O)[C@H](CO)NC(=O)[C@H](Cc3ccccc3)N(C)C(=O)[C@H](CCCNC(=N)N)NC(=O)[C@H](Cc3ccccc3)NC(=O)CSC[C@@H](C(=O)NCC(N)=O)NC(=O)[C@H](Cc3ccccc3)N(C)C(=O)[C@H](CC(N)=O)NC(=O)[C@@H]3Cc4ccccc4CN3C(=O)[C@H](CC(=O)O)NC(=O)[C@H](CCCNC(=N)N)NC2=O)O[C@H](CO)[C@H](O)[C@@H]1O [BFC-15]		Kd [1]: 301 nM; Kd ([2]; Bifunctional Compound (FHR3 series), Table 7, read-out: ASGRR KD): 0.45 nM
		CC(C)[C@@H]1NC(=O)[C@H](Cc2ccccc2)NC(=O)CSC[C@@H](C(=O)NCC(=O)N[C@@H](CCCCNC(=O)c2ccc(/C=N/OCC(=O)NNC(=O)CCCO[C@@H]3OC(CO[C@H]4OC(CO[C@H]5OC(CO)[C@@H](O)C(O)C5C[C@H]5OC(COP(=O)(O)O)[C@@H](O)C(O)C5O)[C@@H](O)C(O)C4O)[C@@H](O)C(O[C@H]4OC(CO)[C@@H](O)C(O)C4O[C@H]4OC(COP(=O)(O)O)[C@@H](O)C(O)C4O)C3O)cc2)C(N)=O)NC(=O)[C@@H]2CCCN2C(=O)[C@H](C)NC(=O)[C@H](CCC(=O)O)NC(=O)[C@H](C)N(C)C(=O)[C@H](Cc2ccc(-c3ccccc3)cc2)NC(=O)[C@H](C)N(C)C(=O)[C@H](Cc2ccc(-c3ccccc3)cc2)NC(=O)[C@H]([C@@H](C)O)NC(=O)[C@H]([C@@H](C)O)NC(=O)[C@@H]2CCCN2C1=O (stereo partly drawn) [BFC-2] ({CH2CO}-FVPTT[Bip][NMeA][Bip][NMeA]EAPCGK(X6)-NH2; thioether N-13)	7.19 nM	
		CC(C)[C@@H]1NC(=O)[C@H](Cc2ccccc2)NC(=O)CSC[C@@H](C(=O)NCC(=O)N[C@@H](CCCCNC(=O)OC[C@@H]2[C@@H]3CCc4c(nnn4CCCCCCO[C@H](O[C@@H](/C=N/OCCO[C@H]4O[C@H](CCP(=O)(O)O)[C@@H](O)[C@H](O)[C@@H]4O)CO)[C@H](O)/C=N\OCCO[C@H]4O[C@H](CCP(=O)(O)O)[C@@H](O)[C@H](O)[C@@H]4O)CC[C@@H]32)C(N)=O)NC(=O)[C@@H]2CCCN2C(=O)[C@H](C)NC(=O)[C@H](CCC(=O)O)NC(=O)[C@H](C)N(C)C(=O)[C@H](Cc2ccc(-c3ccccc3)cc2)NC(=O)[C@H](C)N(C)C(=O)[C@H](Cc2ccc(-c3ccccc3)cc2)NC(=O)[C@H]([C@@H](C)O)NC(=O)[C@H]([C@@H](C)O)NC(=O)[C@@H]2CCCN2C1=O [BFC-4] ({CH2CO}-FVPTT[Bip][NMeA][Bip][NMeA]EAPCGK(X7)-NH2; thioether N-13)	110 nM	
3.5 nM	7 nM	CC(=O)N[C@H]1[C@H]2OC[C@](COCCOCCOCCOCCn3cc(COCC(COCc4cn(CCOCCOCCOCCOC[C@@]56CO[C@@H](O5)[C@H](NC(C)=O)[C@@H](O)[C@H]6O)nn4)NC(=O)CCOCCOCCOCCOCCC(=O)NCCCC[C@H](NC(=O)CNC(=O)[C@@H]4CSCC(=O)N[C@@H](Cc5ccccc5)C(=O)N[C@@H](C(C)C)C(=O)N5CCC[C@H]5C(=O)N[C@@H]([C@@H](C)O)C(=O)N[C@@H]([C@@H](C)O)C(=O)N[C@@H](Cc5ccc(-c6ccccc6)cc5)C(=O)N(C)[C@@H](C)C(=O)N[C@@H](Cc5ccc(-c6ccccc6)cc5)C(=O)N(C)[C@@H](C)C(=O)N[C@@H](CCC(=O)O)C(=O)N[C@@H](C)C(=O)N5CCC[C@H]5C(=O)N4)C(N)=O)nn3)(O2)[C@H](O)[C@@H]1O (stereo partly drawn) [BFC-7] ({CH2CO}-FVPTT[Bip][NMeA][Bip][NMeA]EAPCGK(X2)-NH2; thioether N-13)		
4.6 nM	90 nM	CC(=O)N[C@H]1[C@H]2OC[C@](COCCOCCOCCOCCn3cc(COCCNC(=O)CCOCCOCCOCCOCCC(=O)NCCCC[C@H](NC(=O)CNC(=O)[C@@H]4CSCC(=O)N[C@@H](Cc5ccccc5)C(=O)N[C@@H](C(C)C)C(=O)N5CCC[C@H]5C(=O)N[C@@H]([C@@H](C)O)C(=O)N[C@@H]([C@@H](C)O)C(=O)N[C@@H](Cc5ccc(-c6ccccc6)cc5)C(=O)N(C)[C@@H](C)C(=O)N[C@@H](Cc5ccc(-c6ccccc6)cc5)C(=O)N(C)[C@@H](C)C(=O)N[C@@H](CCC(=O)O)C(=O)N[C@@H](C)C(=O)N5CCC[C@H]5C(=O)N4)C(N)=O)nn3)(O2)[C@H](O)[C@@H]1O [BFC-5] ({CH2CO}-FVPTT[Bip][NMeA][Bip][NMeA]EAPCGK(X1)-NH2; thioether N-13)		
		NOCC(=O)NNC(=O)CCCO[C@@H]1OC(CO[C@H]2OC(CO[C@H]3OC(CO)[C@@H](O)[C@H](O)C3O[C@H]3OC(COP(=O)(O)O)[C@@H](O)C(O)[C@H]3O)[C@@H](O)[C@H](O)C2O)[C@@H](O)[C@H](O[C@H]2OC(CO)[C@@H](O)C(O)[C@H]2O[C@H]2OC(COP(=O)(O)O)[C@@H](O)C(O)[C@H]2O)C1O (stereo partly drawn) [int-CC6]		Kd ([3]; Free Ligand, SPR, read-out: M6PR binding KD): 0.327 nM
